The source made the active and inactive calls.
How the values were obtained:
[1] = target: Eukaryotic translation initiation factor 4E (Mus musculus, UniProt P63073); assay: eIF4E–eIF4G protein interaction inhibitors, dose response, biochemical, TR-FRET (AID 855); format: functional;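 note: potency for disrupting eIF4E binding to eIF4GI seen as loss of FRET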
X-box-binding protein 1 = X-box-binding protein 1 (Homo sapiens, UniProt P17861); format: functional, Cricetulus griseus;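 note: confirmatory dose-response counter-screen serving a CHOP assay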
Chain of X-box-binding protein 1 (P17861 whole entry): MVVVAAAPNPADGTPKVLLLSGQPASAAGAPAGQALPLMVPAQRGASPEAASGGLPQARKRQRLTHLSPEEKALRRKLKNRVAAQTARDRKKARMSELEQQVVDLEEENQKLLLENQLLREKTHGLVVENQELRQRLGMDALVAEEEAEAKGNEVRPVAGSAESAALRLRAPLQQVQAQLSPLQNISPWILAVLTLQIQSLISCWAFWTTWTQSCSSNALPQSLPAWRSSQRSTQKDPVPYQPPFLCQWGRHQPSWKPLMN

Mu-type opioid receptor = Mu-type opioid receptor (Homo sapiens, UniProt P35372); assay: (§1) Counterscreen for agonists of heterodimerization of the mu 1 (OPRM1) and delta 1 (OPRD1) opioid receptors: Luminescence-based cell-based high throughput dose response assay to identify agonists of OPRM1 homodimerization.; format: functional
Chain of Mu-type opioid receptor (P35372 whole entry): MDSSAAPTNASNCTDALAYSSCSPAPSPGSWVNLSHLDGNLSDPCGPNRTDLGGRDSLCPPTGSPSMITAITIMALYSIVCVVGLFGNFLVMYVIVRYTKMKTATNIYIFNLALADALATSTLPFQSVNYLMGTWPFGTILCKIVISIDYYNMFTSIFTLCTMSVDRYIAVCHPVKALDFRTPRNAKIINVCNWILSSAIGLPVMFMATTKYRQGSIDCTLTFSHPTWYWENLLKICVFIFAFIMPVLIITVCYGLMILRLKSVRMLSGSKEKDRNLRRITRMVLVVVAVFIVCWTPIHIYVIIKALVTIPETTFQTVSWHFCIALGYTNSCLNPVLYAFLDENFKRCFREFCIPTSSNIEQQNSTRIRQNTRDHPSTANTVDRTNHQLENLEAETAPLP

[2] = target: 5-hydroxytryptamine receptor 5A (Homo sapiens, UniProt P47898); assay: Counterscreen for agonists of OPRM1-OPRD1 heterodimerization: luminescence-based cell-based high throughput dose response assay to identify agonists of 5-hydroxytryptamine (serotonin) 5A receptor (HTR5A). [Related pubchem assays (depositor defined):AID504326, AID504355, AID504692, AID504904, AID504905]; format: functional
Chain of 5-hydroxytryptamine receptor 5A (P47898 whole entry): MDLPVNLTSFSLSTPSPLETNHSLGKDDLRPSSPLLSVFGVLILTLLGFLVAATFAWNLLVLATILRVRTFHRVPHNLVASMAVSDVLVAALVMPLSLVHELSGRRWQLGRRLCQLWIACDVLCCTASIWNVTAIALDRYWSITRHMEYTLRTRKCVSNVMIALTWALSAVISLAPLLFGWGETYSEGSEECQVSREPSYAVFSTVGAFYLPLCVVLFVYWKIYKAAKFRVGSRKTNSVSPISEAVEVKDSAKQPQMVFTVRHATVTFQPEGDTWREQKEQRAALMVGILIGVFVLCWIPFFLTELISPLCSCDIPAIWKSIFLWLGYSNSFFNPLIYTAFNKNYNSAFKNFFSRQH

[3] = target: Delta-type opioid receptor (Homo sapiens, UniProt P41143); assay: as §1, with “of OPRD1” for “of OPRM1”, “homodimerization. [Related pubchem assays (depositor defined):AID504326, AID504355, AID504692, AID504904, AID504905]” for “homodimerization.”; format: functional
Chain of Delta-type opioid receptor (P41143 whole entry): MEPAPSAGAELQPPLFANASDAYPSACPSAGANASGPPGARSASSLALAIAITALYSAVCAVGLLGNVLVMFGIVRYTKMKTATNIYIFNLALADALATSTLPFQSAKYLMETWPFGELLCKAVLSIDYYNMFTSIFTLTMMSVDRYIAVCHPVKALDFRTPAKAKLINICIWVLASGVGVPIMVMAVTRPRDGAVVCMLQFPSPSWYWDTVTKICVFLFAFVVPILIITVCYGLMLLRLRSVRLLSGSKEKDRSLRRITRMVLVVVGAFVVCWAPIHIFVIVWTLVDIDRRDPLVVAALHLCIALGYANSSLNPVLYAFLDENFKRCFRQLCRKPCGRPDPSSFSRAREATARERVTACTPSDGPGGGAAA

Caspase-7 = target: T1, Caspase-7 (Homo sapiens, UniProt P55210); assay: procaspase-7 activators, dose response, dual procaspase-3/-7 activator project, biochemical, absorbance, human (AID 504330)
T1 sequence (P55210 whole entry): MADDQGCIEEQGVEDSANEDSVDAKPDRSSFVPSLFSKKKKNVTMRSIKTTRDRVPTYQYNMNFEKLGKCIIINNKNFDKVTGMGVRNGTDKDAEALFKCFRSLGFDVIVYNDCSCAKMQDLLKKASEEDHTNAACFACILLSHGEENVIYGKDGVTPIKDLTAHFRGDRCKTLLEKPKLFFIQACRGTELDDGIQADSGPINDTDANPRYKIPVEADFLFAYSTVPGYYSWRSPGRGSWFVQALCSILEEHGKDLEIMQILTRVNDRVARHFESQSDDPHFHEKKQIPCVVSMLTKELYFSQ

Caspase-3 = target: T2, Caspase-3 (Homo sapiens, UniProt P42574); assay: procaspase-3 activation potency of dual hits, dose response, counter-screen for dual procaspase-3/7 activator project, biochemical, absorbance, PC-3 D3A mutant (AID 504328)
T2 sequence (P42574 whole entry): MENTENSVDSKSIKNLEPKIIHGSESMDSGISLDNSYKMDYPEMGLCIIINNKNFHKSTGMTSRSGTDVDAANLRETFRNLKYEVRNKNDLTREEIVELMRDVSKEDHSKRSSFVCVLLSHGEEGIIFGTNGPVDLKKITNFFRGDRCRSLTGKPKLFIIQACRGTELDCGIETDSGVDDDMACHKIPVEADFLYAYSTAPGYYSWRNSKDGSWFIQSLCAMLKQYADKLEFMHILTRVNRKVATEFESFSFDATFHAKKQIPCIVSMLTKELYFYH

[4] = A cytotoxicity screen of small molecule inhibitors of the PhoP region in Salmonella typhi identified in the primary screen. [Related pubchem assays: 1850, 1864, 1985 ]; format: functional
[5] = target: T3, Neuropeptides B/W receptor type 1 (Homo sapiens, UniProt P48145); assay: GPR7 antagonist potency, late-stage follow-up, cell-based, fluorescence, dose response (AID 463251); format: functional
T3 sequence (P48145 whole entry): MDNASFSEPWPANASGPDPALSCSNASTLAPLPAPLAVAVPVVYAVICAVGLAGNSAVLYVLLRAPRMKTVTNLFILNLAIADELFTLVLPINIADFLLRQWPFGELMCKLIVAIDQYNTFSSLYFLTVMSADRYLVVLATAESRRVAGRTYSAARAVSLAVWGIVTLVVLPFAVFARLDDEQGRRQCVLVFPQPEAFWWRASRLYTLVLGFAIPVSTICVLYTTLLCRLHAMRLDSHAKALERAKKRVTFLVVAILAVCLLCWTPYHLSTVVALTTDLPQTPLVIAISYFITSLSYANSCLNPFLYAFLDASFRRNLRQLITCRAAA

[6] = target: Melanin-concentrating hormone receptor 1 (Homo sapiens, UniProt Q99705); assay: Late-stage fluorescence-based counterscreen for antagonists of the G-protein coupled receptor 7 (GPR7): cell-based dose response assay to identify antagonists of the melanin-concentrating hormone receptor 1 (MCHR1). [Related pubchem assays (depositor defined):AID1861, AID1880, AID1952, AID2148, AID2251, AID2257, AID485339]; format: functional;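 note: stimulated with 30 nM MCH peptide agonist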
Chain of Melanin-concentrating hormone receptor 1 (Q99705 whole entry): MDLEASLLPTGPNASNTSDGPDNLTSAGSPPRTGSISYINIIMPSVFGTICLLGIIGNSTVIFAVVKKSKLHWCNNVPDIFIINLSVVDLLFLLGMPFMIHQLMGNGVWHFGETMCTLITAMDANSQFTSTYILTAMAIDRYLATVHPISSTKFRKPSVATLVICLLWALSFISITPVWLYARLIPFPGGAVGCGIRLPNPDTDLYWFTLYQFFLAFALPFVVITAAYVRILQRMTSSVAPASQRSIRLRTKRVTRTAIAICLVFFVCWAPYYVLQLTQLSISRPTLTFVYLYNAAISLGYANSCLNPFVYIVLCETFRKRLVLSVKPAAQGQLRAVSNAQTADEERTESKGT

[7] = target: Luciferin 4-monooxygenase (Photinus pyralis, UniProt P08659); assay: firefly luciferase enzyme inhibitors, dose response, biochemical, luminescence (AID 1891)
Chain of Luciferin 4-monooxygenase (P08659 whole entry): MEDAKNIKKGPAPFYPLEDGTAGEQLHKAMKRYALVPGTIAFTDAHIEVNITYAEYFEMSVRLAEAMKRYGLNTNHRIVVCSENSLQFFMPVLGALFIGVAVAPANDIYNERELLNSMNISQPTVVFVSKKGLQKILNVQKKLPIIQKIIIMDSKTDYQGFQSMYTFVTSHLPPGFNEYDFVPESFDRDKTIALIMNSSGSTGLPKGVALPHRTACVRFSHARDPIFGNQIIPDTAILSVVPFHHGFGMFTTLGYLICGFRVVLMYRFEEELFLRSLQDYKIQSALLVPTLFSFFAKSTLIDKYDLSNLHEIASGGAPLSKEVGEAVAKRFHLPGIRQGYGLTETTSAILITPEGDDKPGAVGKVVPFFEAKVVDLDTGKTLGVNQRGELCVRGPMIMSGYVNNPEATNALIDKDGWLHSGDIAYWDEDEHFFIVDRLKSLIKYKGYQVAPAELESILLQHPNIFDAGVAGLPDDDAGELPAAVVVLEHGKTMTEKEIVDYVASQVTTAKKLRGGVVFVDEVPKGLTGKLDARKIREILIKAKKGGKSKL

[8] = Luminescence Cell-Based Dose Confirmation HTS to Identify Inhibitors of Platelet Dense Granule Release. [Related pubchem assays: 1663 (Primary HTS), 1678 (Summary of Project)]; format: functional
[9] = cytotoxicity toward DRD oncogenic fibroblasts, dose response, cell-based, non-viral oncogenic, luminescence (AID 1934); format: functional; settings: Homo sapiens
BJ [10] = assay: cells; format: functional, cell-based; settings: Homo sapiens
[11] = Luminescence-based counterscreen assay for KLF5 inhibitors: dose response cell-based high throughput screening assay to identify cytotoxic compounds using the IEC-6 intestinal epithelial cell line. [Related pubchem assays: 1700 (Primary screen.), 1834 (Confirmation screen.), 1858 (Summary AID.), 1905 (Counterscreen.)]; format: functional
BJ [12] = assay: cytotoxicity toward BJ-TERT-LT-ST fibroblasts, dose response, cell-based, RAS-independent, luminescence (AID 1935); format: functional; settings: Homo sapiens;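 note: BJ fibroblasts immortalized with TERT plus LT and ST oncogenes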
BJ [13] = assay: cytotoxicity toward BJ-TERT fibroblasts, dose response, cell-based, RAS-independent, luminescence (AID 1933); format: functional; settings: Homo sapiens
Procathepsin L = Procathepsin L (Homo sapiens, UniProt P07711)
Chain of Procathepsin L (P07711 whole entry): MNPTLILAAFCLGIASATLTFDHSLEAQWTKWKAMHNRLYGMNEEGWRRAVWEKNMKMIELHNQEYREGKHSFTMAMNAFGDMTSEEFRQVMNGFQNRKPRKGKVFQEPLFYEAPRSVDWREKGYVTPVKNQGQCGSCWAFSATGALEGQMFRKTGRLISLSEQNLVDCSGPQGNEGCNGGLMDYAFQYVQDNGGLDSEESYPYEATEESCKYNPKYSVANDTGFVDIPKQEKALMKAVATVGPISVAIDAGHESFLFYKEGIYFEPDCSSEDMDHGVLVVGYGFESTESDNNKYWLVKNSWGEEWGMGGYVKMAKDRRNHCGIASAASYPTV

Aspartyl aminopeptidase = target: T4, Aspartyl aminopeptidase (Plasmodium falciparum 3D7, UniProt Q8I2J3)
T4 sequence (Q8I2J3 whole entry): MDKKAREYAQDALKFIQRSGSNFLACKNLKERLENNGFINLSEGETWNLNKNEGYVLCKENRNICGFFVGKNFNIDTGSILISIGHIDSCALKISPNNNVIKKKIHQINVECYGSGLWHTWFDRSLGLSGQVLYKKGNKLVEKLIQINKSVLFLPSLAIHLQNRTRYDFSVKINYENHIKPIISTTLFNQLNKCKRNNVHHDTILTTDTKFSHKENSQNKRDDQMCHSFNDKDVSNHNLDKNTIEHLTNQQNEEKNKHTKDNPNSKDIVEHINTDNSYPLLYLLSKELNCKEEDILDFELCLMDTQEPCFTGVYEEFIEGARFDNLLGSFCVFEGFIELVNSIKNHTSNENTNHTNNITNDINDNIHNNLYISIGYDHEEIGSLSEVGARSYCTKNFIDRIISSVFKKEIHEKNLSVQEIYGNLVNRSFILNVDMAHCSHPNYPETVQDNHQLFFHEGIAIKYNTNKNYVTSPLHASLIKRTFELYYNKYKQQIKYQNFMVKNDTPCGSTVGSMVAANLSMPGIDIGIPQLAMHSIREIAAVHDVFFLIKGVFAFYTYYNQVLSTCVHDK

[14] = inhibitors of Bluetongue virus cytopathic effect, confirmation, arbovirus, BSR cells (AID 1250); format: functional;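 note: protection from viral cytopathic effect measured as cell viability by ATP luminescence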

Chain of Eukaryotic translation initiation factor 4E (P63073 whole entry): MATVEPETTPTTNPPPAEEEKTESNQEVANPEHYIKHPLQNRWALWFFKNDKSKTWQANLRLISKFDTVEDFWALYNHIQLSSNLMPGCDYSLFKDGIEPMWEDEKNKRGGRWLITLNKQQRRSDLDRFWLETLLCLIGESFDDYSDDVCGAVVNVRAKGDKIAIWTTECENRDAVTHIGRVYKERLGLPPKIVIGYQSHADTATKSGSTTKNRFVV

SMILES: CCOc1ccc(-n2c(-c3ccco3)n[nH]c2=S)cc1
- IC50 [1]: > 64 µM (inactive)

SMILES: COc1cc(C(=O)OC(C)C(=O)NCC2CCCCC2)cc(NC(=O)c2ccco2)c1OC (configuration not stated)
- Absolute IC50 (XBP1) (X-box-binding protein 1): 10 µM
- EC50 (Mu-type opioid receptor): > 92.5 µM (inactive)
- EC50 [2]: > 92.5 µM (inactive)
- EC50 [3]: > 92.5 µM (inactive)

SMILES: O=C(Nc1ccc(Cc2ccncc2)cc1)C1CCC(N2C(=O)C3C4C=CC(C5CC45)C3C2=O)CC1 (configuration not stated)
- EC50 (Caspase-7): > 85.3 µM (inactive)
- EC50 (Caspase-3): > 85.3 µM (inactive)

SMILES: Cc1cc(C)c2nc(N=C(N)NC(=O)c3ccccc3)nc(C)c2c1
- EC50 [4]: > 50 µM (active)

SMILES: O=c1c(Oc2ccc(O)cc2)c(Cl)cnn1-c1ccc(F)cc1
- IC50 [5]: 8.7 µM (active)
- IC50 [6]: 8 µM (active)

SMILES: CN(Cc1nc(O)c2ccccc2n1)C(=O)c1cc(C2CC2)nn1-c1ccccc1
- IC50 (cells): 21.6 µM (active)

SMILES: CN(CCO)c1ccc(/C=N/Nc2nncc3ccccc23)cc1
- EC50 [7]: 0.67 µM (active)
- EC50 [8]: 0.533 µM (active)
- EC50 [9]: 4.01 µM (active)
- EC50 (BJ [10]): 10.8 µM (active)
- IC50 [11]: 24.7 µM (not active)
- EC50 (BJ [12]): > 150 µM (not active)
- EC50 (BJ [13]): > 150 µM (not active)

SMILES: O=C(NCc1ccccc1Cl)C1CCN(S(=O)(=O)c2cccc3nonc23)CC1
- IC50 (cells): 27.2 µM (active)

SMILES: Cc1cc(OCC(=O)Nn2cnnc2)ccc1Br
- IC50 (Procathepsin L): > 59.6 µM (not active)
- IC50 (Aspartyl aminopeptidase): 2.55 µM (active)

SMILES: Cc1nn(-c2cc(C(F)(F)F)ccc2Cl)c2nc(C(F)(F)F)nc(O)c12
- IC50 [14]: 22.5 µM (active)
